Data: patent publication US10881110B2, “Herbicidal compositions comprising isoxazolo[5,4-b]pyridines” (BASF SE, priority 2014, dated 2021)

Columns and labels:
Experiment in all cases: greenhouse post-emergence herbicidal test
CONAR = assay type: in vivo, Convolvulus arvensis; parameters: key: rating on a scale from 0 to 100
Procedure, shortened: (§1)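 Test plants, sown directly or transplanted a few days earlier, are treated at 1–15 cm height with emulsified or suspended actives in water. Temperatures run 10-25° C or 20-35° C by species; injury is scored 0–100 twenty days after spraying.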

POLCO = assay type: in vivo, Polygonum convolvulus; parameters: key to herbicidal activity against POLCO found: rating on a scale from 0 to 100; details: post emergence
Procedure, shortened: (§2)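 Herbicidal activity scored on a 0 (no damage) to 100 (plants destroyed) scale, usually 20 days after water-based spraying of 1–15 cm plants grown in loamy sand at 10-25 °C or 20-35 °C depending on species. Components were applied from 10% emulsion concentrates; Colby's E=X+Y−(X·Y/100) gives the additive expectation.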

POLPE = assay type: in vivo, Persicaria maculosa; parameters: key: scale 0 to 100; details: application rate a.i.: I.1 31.25 g/ha, B.139 (pyroxasulfone) 12.5 g/ha, alone or as mixture (composition 1.139)
Method: (§3) The culture containers used were plastic pots containing medium loamy sand with approximately 4.6% of humus and 69.9% sand as substrate. The seeds of the test plants were sown separately for each species.
(§4) For the post-emergence treatment, the test plants were grown to a plant height of from 1 to 15 cm, depending on the plant habit, and only then treated with the active compounds which had been suspended or emulsified in water. To this end, the test plants were either sown directly, and grown in the same containers, or they were first grown separately as seedlings and transplanted into the test containers a few days prior to treatment.
(§5) Depending on the species, the plants were kept at 10-25° C. and 20-35° C., respectively.
(§6) The test period extended over 1 to 3 weeks. During this time, the plants were tended and their response to the individual treatments was evaluated 20 days after treatment except mentioned otherwise.
(§7) Evaluation was carried out using a scale from 0 to 100. 100 means no emergence of the plants, or complete destruction of at least the above-ground parts, and 0 means no damage or normal course of growth.
(§8) The respective stated components A and B, and, if appropriate, C, were formulated as a 10% by weight strength emulsion concentrate and, with addition of the amount of solvent system, introduced into the spray liquor used for applying the active compound. In the examples, the solvent used was water.
(§9) In the examples below, using the method of S. R. Colby (1967) “Calculating synergistic and antagonistic responses of herbicide combinations”, Weeds 15, p. 22 ff., the value E, which is expected if the activity of the individual active compounds is only additive, was calculated. E=X+Y−(X·Y/100)

LAMAM = assay type: in vivo, Lamium amplexicaule; parameters: key: scale 0 to 100
Method: as §3, §4, §5, §6, §7, §8, §9

GERPU = assay type: in vivo, Geranium pusillum; details: application rate a.i.: I.1 31.25 g/ha
Method: as §3, §4, §5, §6, §7, §8, §9

AMBEL = assay type: in vivo, Ambrosia artemisiifolia; parameters: key: rating on a scale from 0 to 100; details: application rate a.i.: I.1 31.25 g/ha, B.139 (pyroxasulfone) 12.5 g/ha, alone or as mixture (composition 1.139)
Procedure, shortened: as §1

ABUTH = assay type: in vivo, Abutilon theophrast; parameters: key to herbicidal activity against ABUTH found: rating on a scale from 0 to 100; details: post emergence
Procedure, shortened: as §1

SEBEX = assay type: in vivo, Sesbania exaltata; details: application rate a.i.: I.1 31.25 g/ha
Method: as §3, §4, §5, §6, §7, §8, §9

GERDI = assay type: in vivo, Geranium dissectum; parameters: key to herbicidal activity against GERDI found: rating on a scale from 0 to 100; details: post emergence
Procedure, shortened: as §1

GALAP = assay type: in vivo, Galium aparine; parameters: key to herbicidal activity against GALAP found: rating on a scale from 0 to 100; details: post emergence
Procedure, shortened: as §2

PANMI = assay type: in vivo, Panicum miliaceum; details: application rate a.i.: I.1 125 g/ha, alone or as mixture (composition 1.113)
Method: as §3, §4, §5, §6, §7, §8, §9

PAPRH = assay type: in vivo, Papaver rhoeas; details: application rate a.i.: I.1 62.5 g/ha, B.87 (carfentrazone-ethyl) 1.75 g/ha, alone or as mixture (composition 1.87)
Procedure, shortened: as §1

MATCH = assay type: in vivo, Matricaria recutita; parameters: key to herbicidal activity against MATCH found: rating on a scale from 0 to 100; details: post emergence
Procedure, shortened: as §1

APESV = assay type: in vivo, Apera spica-venti; parameters: key to herbicidal activity against APESV found: rating on a scale from 0 to 100; details: post emergence, 20 days after treatment
Procedure, shortened: as §1

PHACA = assay type: in vivo
Method: as §3, §4, §5, §6, §7, §8, §9

CHEAL = assay type: in vivo, Chenopodium album
Method: as §3, §4, §5, §6, §7, §8, §9

ALOMY = assay type: in vivo, Alopecurus myosuroides; parameters: key to herbicidal activity against ALOMY found: rating on a scale from 0 to 100; details: post emergence, 20 days after treatment
Procedure, shortened: as §1

LOLMU = assay type: in vivo, Lolium multiflorum
Method: as §3, §4, §5, §6, §7, §8, §9

STEME = assay type: in vivo, Stellaria media; parameters: key: scale 0 to 100
Procedure, shortened: as §1

ECHCG = assay type: in vivo, Echinochloa crus-galli; parameters: key to herbicidal activity against ECHCG found / herbicidal activity against ECHCH found: scale 0 to 100; details: post emergence, 20 days after treatment
Procedure, shortened: as §1

[1] = application rate a.i.: I.1 31.25 g/ha, B.139 (pyroxasulfone) 12.5 g/ha, alone or as mixture (composition 1.139)
[2] = application rate a.i.: I.1 31.25 g/ha, B.139 (pyroxasulfone) 25 g/ha, alone or as mixture (composition 1.139)
[3] = B.139 (pyroxasulfone) 25 g/ha, alone or as mixture (composition 1.139)
[4] = application rate a.i.: I.1 125 g/ha, B.113 (glyphosate) 33.75 g/ha, alone or as mixture (composition 1.113)
[5] = application rate a.i.: I.1 125 g/ha, B.113 (glyphosate) 135 g/ha, alone or as mixture (composition 1.113)
[6] = application rate a.i.: I.1 62.5 g/ha, B.87 (carfentrazone-ethyl) 1.75 g/ha, alone or as mixture (composition 1.87)
[7] = application rate a.i.: I.1 31.25 g/ha, B.87 (carfentrazone-ethyl) 1.75 g/ha, alone or as mixture (composition 1.87)
[8] = B.87 (carfentrazone-ethyl) 1.75 g/ha, alone or as mixture (composition 1.87)
[9] = a.i. g/ha: I.1 7.8, B.67 125, 20 days after treatment
[10] = a.i. g/ha: I.1 15.6, B.67 125, 20 days after treatment
[11] = a.i. g/ha: I.1 20.8, B.67 62.5, 20 days after treatment
[12] = a.i. g/ha: I.1 31.25, B.67 125, 20 days after treatment
[13] = a.i. g/ha: I.1 62.5, B.67 62.5, 20 days after treatment
[14] = a.i. g/ha: I.1 62.5, B.67 125, 20 days after treatment
[15] = a.i. g/ha: I.1 31.25, B.67 125, 20 days after treatment, sub-table r36-r43
[16] = a.i. g/ha: I.1 6.9, B.67 62.5, 20 days after treatment

SMILES: Cn1nc(C(F)(F)F)c(CS(=O)(=O)C2=NOC(C)(C)C2)c1OC(F)F [B.139, pyroxasulfone]
- herbicidal activity against CONAR found (CONAR; [1]): 60
- herbicidal activity against CONAR found (CONAR; [2]): 60
- herbicidal activity against POLCO found (POLCO; [1]): 15
- herbicidal activity against POLPE found (POLPE): 55
- herbicidal activity against LAMAM, found (LAMAM; [2]): 45
- herbicidal activity against GERPU, found (GERPU; B.139 (pyroxasulfone) 12.5 g/ha, alone or as mixture (composition 1.139)): 0
- herbicidal activity against GERPU, found (GERPU; [3]): 25
- herbicidal activity against AMBEL found (AMBEL): 10
- herbicidal activity against ABUTH found (ABUTH; [2]): 60
- herbicidal activity against SEBEX, found (SEBEX; [3]): 35

SMILES: O=C(O)CNCP(=O)(O)O [B.113, glyphosate]
- herbicidal activity against CONAR found (CONAR; [4]): 45
- herbicidal activity against GERDI found (GERDI; [5]): 80
- herbicidal activity against GALAP found (GALAP; [4]): 50
- herbicidal activity against GALAP found (GALAP; [5]): 80
- herbicidal activity against PANMI, found (PANMI; B.113 (glyphosate) 33.75 g/ha): 80
- herbicidal activity against PANMI, found (PANMI; B.113 (glyphosate) 135 g/ha): 90

SMILES: CCOC(=O)C(Cl)Cc1cc(-n2nc(C)n(C(F)F)c2=O)c(F)cc1Cl (stereo not drawn) [B.87, carfentrazone-ethyl]
- herbicidal activity against GERDI found (GERDI; [6]): 70
- herbicidal activity against LALAM, found (LAMAM; [7]): 80
- herbicidal activity against LAMAM, found (LAMAM; [6]): 80
- herbicidal activity against GERPU, found (GERPU; [8]): 75
- herbicidal activity against PAPRH found (PAPRH): 30
- herbicidal activity against MATCH found (MATCH; [7]): 75
- herbicidal activity against MATCH found (MATCH; [6]): 75
- herbicidal activity against SEBEX, found (SEBEX; [8]): 75

SMILES: CCNc1nc(Cl)nc(NC(C)C)n1 [B.67, atrazine]
- herbicidal activity against CONAR found (CONAR; [9]): 65%
- herbicidal activity against CONAR found (CONAR; [10]): 65%
- herbicidal activity against CONAR found (CONAR; [11]): 60%
- herbicidal activity against CONAR found (CONAR; [12]): 65%
- herbicidal activity against CONAR found (CONAR; [13]): 60%
- herbicidal activity against CONAR found (CONAR; [14]): 65%
- herbicidal activity against APESV found (APESV; a.i. g/ha: I.1 2.3, B.67 62.5): 60%
- herbicidal activity against APESV found (APESV; a.i. g/ha: I.1 6.9, B.67 62.5): 60%
- herbicidal activity against POLCO found (POLCO; [10]): 60%
- herbicidal activity against POLCO found (POLCO; [11]): 80%
- herbicidal activity against POLCO found (POLCO; [12]): 60%
- herbicidal activity against POLCO found (POLCO; [13]): 80%
- herbicidal activity against PHACA found (PHACA; [12]): 30%
- herbicidal activity against PHACA found (PHACA; [14]): 30%
- herbicidal activity against GERDI found (GERDI; [9]): 70%
- herbicidal activity against GERDI found (GERDI; [10]): 70%
- herbicidal activity against GERDI found (GERDI; [12]): 85%
- herbicidal activity against GERDI found (GERDI; [15]): 85%
- herbicidal activity against GERDI found (GERDI; [14]): 70%
- herbicidal activity against CHEAL found (CHEAL; [16]): 75%
- herbicidal activity against CHEAL found (CHEAL; [10]): 80%
- herbicidal activity against CHEAL found (CHEAL; [11]): 75%
- herbicidal activity against CHEAL found (CHEAL; [12]): 80%
- herbicidal activity against ABUTH found (ABUTH; [9]): 60%
- herbicidal activity against ABUTH found (ABUTH; [10]): 60%
- herbicidal activity against ABUTH found (ABUTH; [12]): 60%
- herbicidal activity against ABUTH found (ABUTH; [15]): 60%
- herbicidal activity against ABUTH found (ABUTH; [14]): 60%
- herbicidal activity against GALAP found (GALAP; [10]): 70%
- herbicidal activity against GALAP found (GALAP; [11]): 65%
- herbicidal activity against GALAP found (GALAP; [12]): 70%
- herbicidal activity against GALAP found (GALAP; [13]): 65%
- herbicidal activity against ALOMY found (ALOMY; a.i. g/ha: I.1 6.9, B.67 62.5): 35%
- herbicidal activity against ALOMY found (ALOMY; a.i. g/ha: I.1 20.8, B.67 62.5): 35%
- herbicidal activity against ALOMY found (ALOMY; a.i. g/ha: I.1 62.5, B.67 62.5): 35%
- herbicidal activity against LOLMU found (LOLMU; [9]): 35%
- herbicidal activity against LOLMU found (LOLMU; [10]): 35%
- herbicidal activity against LOLMU found (LOLMU; [12]): 35%
- herbicidal activity against LOLMU found (LOLMU; [13]): 20%
- herbicidal activity against LOLMU found (LOLMU; [14]): 35%
- herbicidal activity against MATCH found (MATCH; [12]): 70%
- herbicidal activity against MATCH found (MATCH; [15]): 70%
- herbicidal activity against MATCH found (MATCH; [14]): 50%
- herbicidal activity against STEME found (STEME; a.i. g/ha: I.1 2.3, B.67 62.5, 20 days after treatment): 80%
- herbicidal activity against STEME found (STEME; [16]): 80%
- herbicidal activity against STEME found (STEME; [10]): 75%
- herbicidal activity against STEME found (STEME; [11]): 80%
- herbicidal activity against STEME found (STEME; [12]): 75%
- herbicidal activity against STEME found (STEME; [15]): 75%
- herbicidal activity against ECHCG found (ECHCG; a.i. g/ha: I.1 20.8, B.67 62.5): 35%
- herbicidal activity against ECHCG found (ECHCG; a.i. g/ha: I.1 62.5, B.67 62.5): 35%
